{"source": "patent US20250352539A1", "about": "“COMBINATION THERAPY FOR TREATING CANCER” (AstraZeneca AB, priority 2022, published 2025)", "format_in_all_cases": "cell-based", "key": {"HPAF-II": {"tested_on": "HPAF-II", "assay": "144-hour CellTiter-Glo 2.0 proliferation assay", "conditions": "Homo sapiens; HPAF-II pancreatic; monotherapy; read-out: mono GI50", "protocol": "(§1) Combination profiling was carried out in a panel of cancer cell lines utilising Horizon Discovery's High Throughput Screening platform.\n(§2) Cell lines that have been preserved in liquid nitrogen are thawed and expanded in growth media (see Table 1). Once cells have reached expected doubling times, screening begins. Cells are seeded in 25 μl of growth media in black 384-well tissue culture treated plates (seeding density as noted in Table 11).\n(§3) Cells are equilibrated in assay plates via centrifugation and placed at 37° C. 5% CO2 for twenty-four hours before treatment.\n(§4) Compounds are transferred to assay plates using and Echo acoustic liquid handling system. 25 nl of each compound was added at the appropriate concentration for all combination dose points. Therefore, final assay volume would be […]. Assay plates are incubated with compound for 6 days and are then analysed using CellTiter-Glo 2.0. All data points are collected via automated processes and are subject to quality control and analysed.\n(§5) Growth Inhibition (GI) is reported as a measure of cell growth. The GI percentages are calculated by applying the following test and equation: […]\n(§6) where T is the signal measure for a test article, V is the untreated/vehicle-treated control measure, and Vo is the untreated/vehicle control measure at time zero (also colloquially referred as T0 plates). This formula is derived from the Growth Inhibition calculation used in the National Cancer Institute's NCI-60 high throughput screen. For the purposes of this report, all data analysis was performed in Growth Inhibition (except where noted)."}, "CFPAC-1": {"tested_on": "CFPAC-1", "assay": "144-hour CellTiter-Glo 2.0 proliferation assay", "conditions": "Homo sapiens; CFPAC-1 pancreatic; monotherapy; read-out: mono GI50", "protocol": "as §1, §2, §3, §4, §5, §6"}, "A2780": {"tested_on": "A2780", "assay": "144-hour CellTiter-Glo 2.0 proliferation assay", "conditions": "Homo sapiens; A2780 ovarian; monotherapy; read-out: mono GI50", "protocol": "as §1, §2, §3, §4, §5, §6"}, "TOV-21G": {"tested_on": "TOV-21G", "assay": "144-hour CellTiter-Glo 2.0 proliferation assay", "conditions": "Homo sapiens, TOV21G; TOV-21G ovarian; monotherapy; read-out: mono GI50", "protocol": "as §1, §2, §3, §4, §5, §6"}, "HCT-116": {"tested_on": "HCT-116", "assay": "144-hour CellTiter-Glo 2.0 proliferation assay", "conditions": "Homo sapiens; HCT-116 colorectal; monotherapy; read-out: mono GI50", "protocol": "as §1, §2, §3, §4, §5, §6"}, "JHOM-1": {"tested_on": "JHOM-1", "assay": "144-hour CellTiter-Glo 2.0 proliferation assay", "conditions": "JHOM-1 ovarian; monotherapy; read-out: mono GI50", "protocol": "as §1, §2, §3, §4, §5, §6"}, "COV362": {"tested_on": "COV362", "assay": "144-hour CellTiter-Glo 2.0 proliferation assay", "conditions": "COV362 ovarian; monotherapy; read-out: mono GI50", "protocol": "as §1, §2, §3, §4, §5, §6"}, "Gp2D": {"tested_on": "Gp2D", "assay": "144-hour CellTiter-Glo 2.0 proliferation assay", "conditions": "Gp2D colorectal; monotherapy; read-out: mono GI50", "protocol": "as §1, §2, §3, §4, §5, §6"}, "LoVo": {"tested_on": "LoVo", "assay": "144-hour CellTiter-Glo 2.0 proliferation assay", "conditions": "Homo sapiens; LoVo colorectal; monotherapy; read-out: mono GI50", "protocol": "as §1, §2, §3, §4, §5, §6"}, "KP-3": {"tested_on": "KP-3", "assay": "144-hour CellTiter-Glo 2.0 proliferation assay", "conditions": "KP-3 pancreatic; monotherapy; read-out: mono GI50", "protocol": "as §1, §2, §3, §4, §5, §6"}, "SNU-324": {"tested_on": "SNU-324", "assay": "144-hour CellTiter-Glo 2.0 proliferation assay", "conditions": "SNU-324 pancreatic; monotherapy; read-out: mono GI50", "protocol": "as §1, §2, §3, §4, §5, §6"}, "MIA PaCa-2": {"tested_on": "MIA PaCa-2", "assay": "144-hour CellTiter-Glo 2.0 proliferation assay", "conditions": "monotherapy, read-out: mono GI50", "protocol": "as §1, §2, §3, §4, §5, §6"}, "SW837": {"tested_on": "SW837", "assay": "144-hour CellTiter-Glo 2.0 proliferation assay", "conditions": "Homo sapiens; SW837 colorectal; monotherapy; read-out: mono GI50", "protocol": "as §1, §2, §3, §4, §5, §6"}, "LMSU": {"tested_on": "LMSU", "assay": "144-hour CellTiter-Glo 2.0 proliferation assay", "conditions": "LMSU gastric; monotherapy; read-out: mono GI50", "protocol": "as §1, §2, §3, §4, §5, §6"}, "HGC-27": {"tested_on": "HGC-27", "assay": "144-hour CellTiter-Glo 2.0 proliferation assay", "conditions": "Homo sapiens; HGC-27 gastric; monotherapy; read-out: mono GI50", "protocol": "as §1, §2, §3, §4, §5, §6"}, "KURAMOCHI": {"tested_on": "KURAMOCHI", "assay": "144-hour CellTiter-Glo 2.0 proliferation assay", "conditions": "KURAMOCHI ovarian; monotherapy; read-out: mono GI50", "protocol": "as §1, §2, §3, §4, §5, §6"}, "SW620": {"tested_on": "SW620", "assay": "144-hour CellTiter-Glo 2.0 proliferation assay", "conditions": "Homo sapiens, SW-620; SW620 colorectal; monotherapy; read-out: mono GI50", "protocol": "as §1, §2, §3, §4, §5, §6"}, "AGS": {"tested_on": "AGS", "assay": "144-hour CellTiter-Glo 2.0 proliferation assay", "conditions": "Homo sapiens; AGS gastric; monotherapy; read-out: mono GI50", "protocol": "as §1, §2, §3, §4, §5, §6"}, "HT-115": {"tested_on": "HT-115", "assay": "144-hour CellTiter-Glo 2.0 proliferation assay", "conditions": "HT115; HT-115 colorectal; monotherapy; read-out: mono GI50", "protocol": "as §1, §2, §3, §4, §5, §6"}, "MKN74": {"tested_on": "MKN74", "assay": "144-hour CellTiter-Glo 2.0 proliferation assay", "conditions": "Homo sapiens, MKN-74; MKN74 gastric; monotherapy; read-out: mono GI50", "protocol": "as §1, §2, §3, §4, §5, §6"}, "U87 IDHm": {"tested_on": "U87 IDHm", "assay": "7 days treatment combination assay in glioblastoma cell lines (Hoeschst positive nuclei count)", "conditions": "168 h, Adult GBM", "protocol": "(§7) The assay was carried out in the following glioblastoma cell lines: • U87 • U87 R132H • T98G • SJ-G2 ctrl • SJ-G2 IDH using AZD6738 and AZD9574\n(§8) The cells were seeded the day before drug treatment in 150 μl per well of 96-well plate. For SJ-G2 cells, the plates were coated with poly-Lysine solution for 15 minutes, washed twice with sterile water and dried for 1 hour.\n(§9) The seeding numbers were (cells per well): U87-500; T98G-500; SJ-G2 ctrl-1000; SJ-G2 IDH.\n(§10) The compounds were added via a drug dispenser according to the following scheme:\n(§11) after 7 Days: • (a) for SJ-G2, 75 μl Cell Titer Glow 2.0 solution (Promega) was added and incubated for 15 minutes at 37° C. The cells were then read using a plate reader. • (b) for U87 and T98G, 75 μl of 37% formaldehyde was added and fixed for 20 minutes at room temperature. This was then washed twice with PBS, followed by Hoeschst staining for 1 hour at room temperature (Hoeschst 1:10000 in PBS). This was then washed twice in PBS and the plates sealed. The plates were then imaged on Cell Insight with 10× magnification at the 25 position. Hoeschst positive nuclei were identified as objects, and cell survival was analysed by counting objects (Hoeschst positive nuclei) with the corresponding settings for U87 or T98G.\n(§12) An analysis of drug synergy was then carried out to yield a HSA score"}, "T98G": {"tested_on": "T98G", "assay": "7 days treatment combination assay in glioblastoma cell lines (Hoeschst positive nuclei count)", "conditions": "Homo sapiens, 168 h, Adult GBM", "protocol": "as §7, §8, §9, §10, §11, §12"}, "U87 IDH WT": {"tested_on": "U87 IDH WT", "assay": "7 days treatment combination assay in glioblastoma cell lines (Hoeschst positive nuclei count)", "conditions": "168 h, Adult GBM", "protocol": "as §7, §8, §9, §10, §11, §12"}}, "note": "Values joined by “and” are separate entries in the source; they are usually repeats but may differ in a detail not shown here. Equal values may be shown once. Read-outs that look alike come from different tables or passages of the source."}
{"smiles": "C[C@@H]1COCCN1c1cc(C2([S@](C)(=N)=O)CC2)nc(-c2ccnc3[nH]ccc23)n1", "note": "[AZD6738, 4-{4-[(3R)-3-Methylmorpholin-4-yl]-6-[1-((R)—S-methylsulfonimidoyl)cyclopropyl]pyrimidin-2-yl}-1H-pyrrolo[2,3-b]-pyridine]", "values": [{"measurement": "GI50", "setting": "HPAF-II", "value": 1030, "unit": "nM"}, {"measurement": "GI50", "setting": "CFPAC-1", "value": 757, "unit": "nM"}, {"measurement": "GI50", "setting": "A2780", "value": 667, "unit": "nM"}, {"measurement": "GI50", "setting": "TOV-21G", "value": 374, "unit": "nM"}, {"measurement": "GI50", "setting": "HCT-116", "value": 687, "unit": "nM"}, {"measurement": "GI50", "setting": "JHOM-1", "value": 939, "unit": "nM"}, {"measurement": "GI50", "setting": "COV362", "value": 1060, "unit": "nM"}, {"measurement": "GI50", "setting": "Gp2D", "value": 501, "unit": "nM"}, {"measurement": "GI50", "setting": "LoVo", "value": 401, "unit": "nM"}, {"measurement": "GI50", "setting": "KP-3", "value": "1280 nM and 1900 nM"}, {"measurement": "GI50", "setting": "SNU-324", "value": "476 nM and 534 nM"}, {"measurement": "GI50", "setting": "MIA PaCa-2; Homo sapiens, MIA PaCa-2, MIA PaCa-2 pancreatic", "value": 1200, "unit": "nM"}, {"measurement": "GI50", "setting": "MIA PaCa-2; MIA PaCa-2 pancreatic", "value": 1930, "unit": "nM"}, {"measurement": "GI50", "setting": "SW837", "value": 924, "unit": "nM"}, {"measurement": "GI50", "setting": "LMSU", "value": 1710, "unit": "nM"}, {"measurement": "GI50", "setting": "HGC-27", "value": 1150, "unit": "nM"}, {"measurement": "GI50", "setting": "KURAMOCHI", "value": 728, "unit": "nM"}, {"measurement": "GI50", "setting": "SW620", "value": 853, "unit": "nM"}, {"measurement": "GI50", "setting": "AGS", "value": 1210, "unit": "nM"}, {"measurement": "GI50", "setting": "HT-115", "value": 1610, "unit": "nM"}, {"measurement": "GI50", "setting": "MKN74", "value": 741, "unit": "nM"}, {"measurement": "IC50", "setting": "U87 IDHm", "value": 766, "unit": "nM"}, {"measurement": "IC50", "setting": "T98G", "value": 213, "unit": "nM"}, {"measurement": "IC50", "setting": "U87 IDH WT", "value": 649, "unit": "nM"}]}
